Values of other authors in patent US6649645B1 (Pharmacia Corporation, priority 1998, dated 2003).

Tests used:
[1] = tested on: fibroblast growth factor-induced corneal angiogenesis; settings: rats; Masferrer et al. 1999
[2] = Cynomolgus monkeys, orally for six weeks
[3] = tested on: tumor
[4] = mice, Milas et al., Cancer Res. 1990

## Cc1ccc(-c2cc(C(F)(F)F)nn2-c2ccc(S(N)(=O)=O)cc2)cc1 [Celecoxib, Benzenesulfonamide, 4-(5-(4-methylphenyl)-3-(trifluoromethyl)-1H-pyrazol-1-yl)-]
[1]
  inhibition of fibroblast growth factor-induced corneal angiogenesis: potent inhibition

## CN1C(C(=O)Nc2ccccn2)=C(O)c2sc(Cl)cc2S1(=O)=O [lornoxicam]
[2]
  Toxicity: 1 to 2 mg/kg/day

## COc1ccc2c(c1)c(CC(=O)O)c(C)n2C(=O)c1ccc(Cl)cc1 [indomethacin]
[3]; [4]
  tumor cure rate after radiotherapy: increases the tumor cure rate
  tumor growth delay after radiotherapy: prolongs tumor growth delay
[3]; printed as 'radiation alone'
  enhancement factor (tumor curability): 1.26
[3]; radiation-indomethacin
  enhancement factor (tumor growth delay): 1.4
